# Experimental data taken from ChEMBL document CHEMBL2396593, “Targeting mutant KRAS for anticancer therapeutics: a review of novel small molecule modulators” (J Med Chem, 2013).
# pEC50, pIC50, pKi: −log10 of the molar value.
# Columns and labels:
# DLD-1 [1] = assay: Selectivity ratio of IC50 for mutant KRAS allele-deficient human DLD1 cells to IC50 for human DLD1 cells harboring mutant KRAS; type: functional
# DLD-1 [2] = assay: Cytotoxicity against human DLD1 cells harboring mutant KRAS; type: functional, cell-based
# DLD-1 [3] = assay: Cytotoxicity against mutant KRAS allele-deficient human DLD1 cells; type: functional, cell-based
# DLD-1 [4] = assay: Antiproliferative activity against human DLD1 cells expressing KRAS mutant at 25 nM; type: functional
# [5] = Antitumor activity against human H460 cells xenograft model assessed as increase in host survival at 100 mg/kg, ip relative to solvent control (reference value: 24 days); type: functional, NCI-H460; conditions: route intraperitoneal
# A549 = assay: Cytotoxicity against human A549 cells by SRB assay; type: functional, cell-based
# [6] = Antitumor activity against human H460 cells xenograft model assessed as tumor growth inhibition at 100 mg/kg, ip relative to solvent control; type: functional; conditions: NCI-H460, ip, route intraperitoneal, read-out: TGI
# NCI-H2122 = assay: Cytotoxicity against human NCI-H2122 cells by SRB assay; type: functional, cell-based
# [7] = Cytotoxicity against human NCI-H2887 cells by SRB assay; type: functional, cell-based
# [8] = Cytotoxicity against human T29Kt1 cells by SRB assay
# [9] = Cytotoxicity against human H460 cells by SRB assay; type: functional, cell-based; conditions: NCI-H460
# [10] = Inhibition of MEK/ERK (unknown origin); set-up: species or system Homo sapiens
# [11] = target: RAF proto-oncogene serine/threonine-protein kinase (Homo sapiens, UniProt P04049); assay: Inhibition of cRAF (unknown origin) by Caliper assay
# [12] = Inhibition of cRaf/MEK/ERK (unknown origin); set-up: species or system Homo sapiens
# [13] = target: T1, Dual specificity mitogen-activated protein kinase kinase 1 (Homo sapiens, UniProt Q02750); assay: Non-competitive inhibition of MEK1 (unknown origin) kinase activity using fluorescent peptide as substrate by fluorescence assay in presence of ATP
# MEF [14] = assay: Antitumor activity against MEF harboring KRAS G12D mutant allografted in p53-null mouse assessed as reduction in tumor weight relative to control; type: functional; set-up: scale not given: the % may be the effect or the level left
# MEF [15] = assay: Cytotoxicity against MEF harboring KRAS G12D mutant by ATP-based cell viability assay; type: functional; conditions: Mus musculus
# MEF [16] = assay: Antitumor activity against MEF harboring KRAS G12D mutant allografted in p53-null mouse assessed as reduction in tumor volume relative to control; type: functional; set-up: scale not given: the % may be the effect or the level left
# [17] = system: GTPase KRas (Homo sapiens), P01116 [G12D]; assay: Binding affinity to KRAS G12D mutant (unknown origin)
# GTPase KRas [18] = target: T2, GTPase KRas (Homo sapiens, UniProt P01116); assay: Inhibition of full-length human KRas4B (amino acids 1 to 188)-SOS interaction assessed as inhibition of SOS-mediated nucleotide release activity
# GTPase KRas [19] = target: T2, GTPase KRas; assay: Inhibition of full-length human KRas4B (amino acids 1 to 188)-SOS interaction assessed as inhibition of nucleotide exchange activity
# [20] = Inhibition of yeast Rce1p using yeast a-factor mating pheromone substrate; set-up: species or system Saccharomyces cerevisiae
# [21] = Inhibition of human Rce1p using quenched fluorogenic substrate by fluorescence assay
# Mus musculus [22] = assay: Inhibition of MEK1-mediated ERK phosphorylation in human HT-29 cells xenografted in nude mouse assessed as plasma concentration required for inhibition at 100 mg/kg, po administered as single dose measured after 1 to 12 hrs by Western blot analysis; type: functional, organism-based; set-up: dose 100 mg/kg, route oral; conditions: HT-29, Plasma
# Mus musculus [23] = assay: Inhibition of MEK1-mediated ERK phosphorylation in human LOX cells xenografted in nude mouse assessed as plasma concentration required for inhibition at 100 mg/kg, po administered as single dose measured after 1 to 12 hrs by Western blot analysis; type: functional, organism-based; set-up: dose 100 mg/kg, route oral
# [24] = target: T1, Dual specificity mitogen-activated protein kinase kinase 1; assay: Inhibition of MEK1 (unknown origin)
# Chain of GTPase KRas (Homo sapiens), P01116 [G12D] (P01116 whole entry G12D, looked up, the tested form may be a part): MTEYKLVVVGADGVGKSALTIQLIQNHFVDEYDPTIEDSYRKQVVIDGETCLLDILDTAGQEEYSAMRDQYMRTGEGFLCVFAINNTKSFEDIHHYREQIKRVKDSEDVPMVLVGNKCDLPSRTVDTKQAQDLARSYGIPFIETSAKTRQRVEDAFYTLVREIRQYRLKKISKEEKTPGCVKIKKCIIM
# T2 sequence (P01116 whole entry, the tested form may be a part): as the sequence (P01116 whole entry G12D, looked up, the tested form may be a part) above, with D12G counted along it
# T1 sequence (Q02750 whole entry): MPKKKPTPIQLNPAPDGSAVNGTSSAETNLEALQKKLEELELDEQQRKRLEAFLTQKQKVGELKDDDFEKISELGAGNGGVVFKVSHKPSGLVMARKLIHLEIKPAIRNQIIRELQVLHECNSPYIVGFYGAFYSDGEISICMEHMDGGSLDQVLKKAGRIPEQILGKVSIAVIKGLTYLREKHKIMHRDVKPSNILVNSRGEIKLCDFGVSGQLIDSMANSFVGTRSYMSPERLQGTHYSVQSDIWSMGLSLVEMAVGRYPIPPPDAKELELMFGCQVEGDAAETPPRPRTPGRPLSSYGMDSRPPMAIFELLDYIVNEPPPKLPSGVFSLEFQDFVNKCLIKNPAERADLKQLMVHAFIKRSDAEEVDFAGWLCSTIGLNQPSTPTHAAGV
# Chain of RAF proto-oncogene serine/threonine-protein kinase (P04049 whole entry): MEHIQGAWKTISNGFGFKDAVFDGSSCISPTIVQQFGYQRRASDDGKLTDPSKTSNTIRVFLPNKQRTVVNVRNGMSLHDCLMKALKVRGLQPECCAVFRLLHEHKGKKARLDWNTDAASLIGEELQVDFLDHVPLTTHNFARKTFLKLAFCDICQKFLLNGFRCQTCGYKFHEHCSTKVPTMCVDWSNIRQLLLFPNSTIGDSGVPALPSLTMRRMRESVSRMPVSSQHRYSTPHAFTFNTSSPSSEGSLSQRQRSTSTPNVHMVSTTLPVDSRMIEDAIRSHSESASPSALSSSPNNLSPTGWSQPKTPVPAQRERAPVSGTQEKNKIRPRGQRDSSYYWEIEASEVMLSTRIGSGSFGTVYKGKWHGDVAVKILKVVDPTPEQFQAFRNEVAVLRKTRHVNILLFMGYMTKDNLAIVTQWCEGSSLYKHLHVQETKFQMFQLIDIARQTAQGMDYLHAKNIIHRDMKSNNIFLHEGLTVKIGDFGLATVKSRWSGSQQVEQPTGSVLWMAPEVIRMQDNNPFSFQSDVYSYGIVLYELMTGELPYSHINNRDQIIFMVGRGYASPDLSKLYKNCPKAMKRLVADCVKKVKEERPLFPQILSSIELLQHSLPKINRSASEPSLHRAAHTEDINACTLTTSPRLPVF
structure (smiles),measurement,setting,value
c1ccc(-c2nn(-c3ccccc3)[n+](-c3ccccc3)n2)cc1,Ratio IC50,DLD-1 [1],6
same,IC50,DLD-1 [2],2 µg/mL
same,IC50,DLD-1 [3],12 µg/mL
CC[C@@H]1C(=O)N(C)c2cnc(Nc3ccc(C(=O)NC4CCN(C)CC4)cc3OC)nc2N1C1CCCC1 [BI-2536],inhibition at 0.025 µM,DLD-1 [4],> 50%
O=Cc1cn(Cc2ccc(Cl)cc2)c2ccccc12,Survival,[5],32 days
same,pIC50,A549,≥ 5.52
same,inhibition in vivo at 100 mg/kg,[6],75.4%
same,pIC50,NCI-H2122,≥ 5.52
same,pIC50,[7],≥ 5.52
same,pIC50,[8],5.32
same,pIC50,[9],≥ 5.52
CCC(=O)c1csc(NC(=O)[C@H]([C@@H](C)c2ccccc2)N2C(=O)N[C@H](c3ccc(OCCO)cc3)C2=O)n1,pKi,[10],6.74
same,pKi,[11],< 4.30
same,pKi,[12],7.28
same,pIC50,[13],7.64
C[C@H](CN1CCCC1)C(=O)c1ccc(C(F)(F)F)cc1 [LANPERISONE],Activity,MEF [14],37%
same,pIC50,MEF [15],5.40
same,Activity,MEF [16],24%
CC[C@H](C)[C@H](N)C(=O)Nc1ccc2nc(Cc3c[nH]c4ccccc34)[nH]c2c1,Activity,[17],190 µM
Cc1[nH]c2cc(Cl)cc(Cl)c2c1CCN,pIC50,GTPase KRas [18],3.81
same,pIC50,GTPase KRas [19],3.47
O=C(O)c1ccc(NC(c2ccccc2)c2ccc3cccnc3c2O)cc1 (stereo unspecified),pIC50,[20],5.22
same,pIC50,[21],6.40
CCCC(c1cc(C(C)(C)C)c(O)cc1C)c1cc(C(C)(C)C)c(O)cc1C,pIC50,[20],5.22
same,pIC50,[21],6.40
NC(=O)c1nnn(Cc2cc(Cl)c(C(=O)c3ccc(Cl)cc3)c(Cl)c2)c1N [CARBOXYAMIDOTRIAZOLE],pIC50,[20],5.22
same,pIC50,[21],6.40
Cc1[nH]c2ccccc2c1Cc1nc2ccccc2[nH]1,Activity,[17],1300 µM
C[C@H](CO)COc1ccc([C@H]2NC(=O)N([C@H](C(=O)Nc3ccc(I)cc3F)[C@@H](C)c3ccccc3)C2=O)cc1,pEC50,Mus musculus [22],5.47
same,pEC50,Mus musculus [23],5.87
same,pIC50,[24],7.60
